ChEMBL document CHEMBL4480363, “Recent developments in compounds acting in the DNA minor groove” (Medchemcomm, 2019)
In brackets after ≈: the same amount, converted by molar mass.

Assays:
Nakaseomyces glabratus = assay: Antifungal activity against Candida glabrata ATCC 2001 incubated for 24 hrs by CLSI based broth microdilution method; format: functional; conditions: ATCC 2001, 24 h
Candida albicans = assay: Antifungal activity against Candida albicans SC5314 incubated for 24 hrs by CLSI based broth microdilution method; format: functional; conditions: SC5314, 24 h
Candida parapsilosis = assay: Antifungal activity against Candida parapsilosis ATCC 22019 incubated for 24 hrs by CLSI based broth microdilution method; format: functional; conditions: Lodderomyces parapsilosis, ATCC 22019, 24 h
[1] = test system: Mycobacterium tuberculosis; assay: Antitubercular activity against Mycobacterium tuberculosis HN878 in presence of non-ionic surfactant vesicles relative to compound alone; format: functional
[2] = test system: Mycobacterium tuberculosis; assay: Antitubercular activity against Mycobacterium tuberculosis HN878; format: functional
[3] = test system: Trypanosoma brucei gambiense; assay: Trypanocidal activity against Trypanosoma brucei gambiense; format: functional, organism-based

Cl.Cl.N=C(N)N/N=C/c1ccc(-c2ccc(/C=N/NC(=N)N)s2)cc1 gave an MIC50 (Nakaseomyces glabratus) of 2 to 15.6 µg/mL, an MIC50 (Candida albicans) of 2 to 15.6 µg/mL and an MIC50 (Candida parapsilosis) of 2 to 15.6 µg/mL.

With Cn1cc(NC(=O)c2cc(NC(=O)c3ccc(/C=C/c4ccc(C(F)(F)F)cc4)cc3)cn2C)cc1C(=O)NCCC(=N)N the “fold change (FC)” value [1] was 2.1 and the MIC50 [2] was 4.19 µM (≈ 2.54 µg/mL).

Cl.Cl.N=C(N)N/N=C/c1ccc(-c2cnc(-c3ccc(/C=N/NC(=N)N)cc3)s2)cc1 showed an MIC50 (Nakaseomyces glabratus) of 2 to 15.6 µg/mL, an MIC50 (Candida albicans) of 2 to 15.6 µg/mL and an MIC50 (Candida parapsilosis) of 2 to 15.6 µg/mL.

In the case of Cn1cc(NC(=O)c2cc(NC(=O)c3ccc(/C=C/c4nc5ccccc5s4)cc3)cn2C)cc1C(=O)NCCC(=N)N, the “fold change (FC)” value [1] is reported as 1.6 and the MIC50 [2] is reported as 4.09 µM (≈ 2.43 µg/mL).

Work on C/C(=N\NC(=N)N)c1ccc(-c2ccc(/C(C)=N/NC(=N)N)s2)cc1.Cl.Cl yielded an MIC50 (Nakaseomyces glabratus) of 2 to 15.6 µg/mL, an MIC50 (Candida albicans) of 2 to 15.6 µg/mL and an MIC50 (Candida parapsilosis) of 2 to 15.6 µg/mL.

Cl.Cl.N=C(N)N/N=C/c1ccc(-c2ccc(/C=N/NC(=N)N)o2)cc1 showed an MIC50 (Nakaseomyces glabratus) of 2 to 15.6 µg/mL, an MIC50 (Candida albicans) of 2 to 15.6 µg/mL and an MIC50 (Candida parapsilosis) of 2 to 15.6 µg/mL.

Work on N=C(N)c1ccc(OCCCCCOc2ccc(C(=N)N)cc2)cc1 [PENTAMIDINE] yielded an IC50 [3] of 1 to 10 nM.
